Assay results as given in ChEMBL document CHEMBL5154776, “Discovery of Potent and Orally Bioavailable Platelet-Derived Growth Factor Receptor (PDGFR) Inhibitors for the Treatment of Osteosarcoma” (J Med Chem, 2022).
Active and inactive are the calls of the source.

Tests used:
[1] = system: HOS-TE85; assay: Inhibition of PDGF AA/BB-stimulated human MNNG/HOS cell proliferation measured after 48 hrs by MTT assay; format: functional, cell-based; conditions: dose 0.1-1.6 µM, DDE = dose-dependent effect
[2] = system: HOS-TE85; assay: Antiinvasive activity against human MNNG/HOS cells assessed as expression of FAK by measuring fluorescence at 0.1 to 0.4 uM upto 48 hrs by DAPI staining based immunofluorescence microscopic analysis; format: functional, cell-based; conditions: dose 0.1-0.4 µM
[3] = system: MG-63; assay: Inhibition of FAK expression in human MG-63 cells incubated for 48 hrs by Western blot analysis; format: functional, cell-based; conditions: dose 0.1-0.4 µM, DDE = dose-dependent effect
[4] = system: HOS-TE85; assay: Inhibition of alpha tubulin expression in human MNNG/HOS cells at 0.1 to 0.4 uM measured after 48 hrs by western blot analysis; format: functional, cell-based; conditions: dose 0.1-0.4 µM
[5] = system: HOS-TE85; assay: Inhibition of cell invasion in human MNNG/HOS cells at 0.1 to 0.4 uM measured after 48 hrs by crystal violet staining based transwell assay; format: functional; conditions: dose 0.1-0.4 µM
[6] = system: MG-63; assay: Inhibition of alpha tubulin expression in human MG-63 cells at 0.1 to 0.4 uM measured after 48 hrs by western blot analysis; format: functional, cell-based; conditions: dose 0.1-0.4 µM
[7] = system: HOS-TE85; assay: Inhibition of FAK expression in human MNNG/HOS cells incubated for 48 hrs by Western blot analysis; format: functional, cell-based; conditions: dose 0.1-0.4 µM, DDE = dose-dependent effect
[8] = biological target: T1, Platelet-derived growth factor receptor beta (Homo sapiens, UniProt P09619); assay: Inhibition of PDGFRbeta in PDGF AA/BB stimulated human MG-63 cells assessed as reduction in fluorescence intensity measured after 48 hrs by DAPI staining based immunofluorescence analysis; format: cell-based; conditions: dose 0.1-0.4 µM, DDE = dose-dependent effect
[9] = system: HOS-TE85; assay: In vivo inhibition of PDGFRbeta-mediated downstream signalling in human MNNG/HOS cells xenografted in BALB/c nude mouse assessed as phosphorylation of ERK in tumor tissue at 15 to 30 mg/kg/day, po for 14 days; format: functional, organism-based; conditions: dose lower […], dose upper 30.0 mg/kg/day, time 14.0 day
[10] = system: HOS-TE85; assay: Antiproliferative activity against human MNNG/HOS cells xenografted in BALB/c nude mouse assessed as suppression of tumor growth at 15 to 30 mg/kg/day, po dosed for 14 days by immunohistochemistry analysis; format: functional, organism-based; conditions: dose lower […], dose upper 30.0 mg/kg/day, time 14.0 day
[11] = biological target: T1, Platelet-derived growth factor receptor beta; assay: Inhibition of PDGFRbeta-mediated downstream signalling in human MNNG/HOS cells assessed as suppression of STAT3 phosphorylation at 0.1 to 0.4 uM measured after 48 hrs by western blot analysis; format: cell-based; conditions: dose 0.1-0.4 µM
[12] = system: MG-63; assay: Antiinvasive activity against human MG-63 cells assessed as expression of FAK by measuring fluorescence at 0.1 to 0.4 uM upto 48 hrs by DAPI staining based immunofluorescence microscopic analysis; format: functional, cell-based; conditions: dose 0.1-0.4 µM
[13] = system: HOS-TE85; assay: Antimigratory activity against human MNNG/HOS cells assessed as reduction in cell spreading area upto 48 hrs by DAPI staining based immunofluorescence microscopic analysis; format: functional; conditions: dose 0.1-0.4 µM, DDE = dose-dependent effect
[14] = biological target: T1, Platelet-derived growth factor receptor beta; assay: Binding affinity to PDGFRbeta (unknown origin)
[15] = system: MG-63; assay: Induction of apoptosis in human MG-63 cells at 0.4 uM after 48 hrs by Annexin V/PI staining based flow cytometric analysis; format: functional, cell-based
[16] = system: HOS-TE85; assay: In vivo inhibition of PDGFRbeta-mediated downstream signalling in human MNNG/HOS cells xenografted in BALB/c nude mouse assessed as phosphorylation of AKT in tumor tissue at 15 to 30 mg/kg/day, po for 14 days; format: functional, organism-based; conditions: dose lower […], dose upper 30.0 mg/kg/day, time 14.0 day
[17] = system: HOS-TE85; assay: Induction of apoptosis in human MNNG/HOS cells xenografted in BALB/c nude mouse at 15 to 30 mg/kg/day, po dosed for 14 days by immunohistochemistry analysis; format: functional, organism-based; conditions: dose lower […], dose upper 30.0 mg/kg/day, time 14.0 day
[18] = system: MG-63; assay: Induction of DNA damage in human MG-63 cells assessed as tail DNA at 0.1 to 0.4 uM measured after 48 hrs by comet assay; format: functional, cell-based; conditions: dose 0.1-0.4 µM
[19] = system: HOS-TE85; assay: Induction of DNA damage in human MNNG/HOS cells assessed as tail DNA at 0.1 to 0.4 uM measured after 48 hrs by comet assay; format: functional, cell-based; conditions: dose 0.1-0.4 µM
[20] = system: MG-63; assay: Inhibition of cell migration in human MG-63 cells at 0.1 to 0.4 uM measured for 48 hrs scratch wound healing migration assay; format: functional, cell-based; conditions: dose 0.1-0.4 µM
[21] = system: MG-63; assay: Inhibition of PDGFRbeta expression in human MG-63 cells incubated for 48 hrs by Western blot analysis; format: functional, cell-based
[22] = system: MG-63; assay: Inhibition of PDGF AA/BB-stimulated human MG-63 cell proliferation measured after 48 hrs by MTT assay; format: functional, cell-based; conditions: dose 0.1-1.6 µM, DDE = dose-dependent effect
[23] = system: HOS-TE85; assay: In vivo inhibition of PDGFRbeta-mediated downstream signalling in human MNNG/HOS cells xenografted in BALB/c nude mouse assessed as phosphorylation of PDGFR in tumor tissue at 15 to 30 mg/kg/day, po for 14 days; format: functional, organism-based; conditions: dose lower […], dose upper 30.0 mg/kg/day, time 14.0 day
[24] = system: MG-63; assay: Inhibition of alpha tubulin expression in human MG-63 cells assessed as effect on microtubule network at 0.1 to 0.4 uM by DAPI staining based immunofluorescence microscopic analysis; format: functional, cell-based; conditions: dose 0.1-0.4 µM
[25] = system: HOS-TE85; assay: Induction of cell cycle arrest in human MNNG/HOS cells assessed as accumulation of cells at G2/M phase incubated for 48 hrs by propidium iodide staining based flow cytometry analysis; format: functional; conditions: dose 0.1-0.4 µM, DDE = dose-dependent effect
[26] = biological target: T1, Platelet-derived growth factor receptor beta; assay: Inhibition of PDGFRbeta phosphorylation in human MNNG/HOS cells incubated for 48 hrs by Western blot analysis; format: cell-based
[27] = biological target: T1, Platelet-derived growth factor receptor beta; assay: Inhibition of PDGFRbeta in PDGF AA/BB stimulated human MNNG/HOS cells assessed as reduction in fluorescence intensity measured after 48 hrs by DAPI staining based immunofluorescence analysis; format: cell-based; conditions: dose 0.1-0.4 µM, DDE = dose-dependent effect
[28] = system: HOS-TE85; assay: Antimigratory activity against human MNNG/HOS cells assessed as expression of FAK by measuring fluorescence at 0.1 to 0.4 uM upto 48 hrs by DAPI staining based immunofluorescence microscopic analysis; format: functional, cell-based; conditions: dose 0.1-0.4 µM
[29] = system: HOS-TE85; assay: In vivo inhibition of PDGFRbeta-mediated downstream signalling in human MNNG/HOS cells xenografted in BALB/c nude mouse assessed as phosphorylation of STAT3 in tumor tissue at 15 to 30 mg/kg/day, po for 14 days; format: functional, organism-based; conditions: dose lower […], dose upper 30.0 mg/kg/day, time 14.0 day
[30] = system: HOS-TE85; assay: Antiinvasive activity against human MNNG/HOS cells assessed as reduction in cell spreading area upto 48 hrs by DAPI staining based immunofluorescence microscopic analysis; format: functional; conditions: dose 0.1-0.4 µM, DDE = dose-dependent effect
[31] = biological target: T1, Platelet-derived growth factor receptor beta; assay: Inhibition of PDGFRbeta-mediated downstream signalling in human MG-63 cells assessed as suppression of STAT3 phosphorylation at 0.1 uM measured after 48 hrs by western blot analysis; format: cell-based
[32] = system: HOS-TE85; assay: Inhibition of cell migration in human MNNG/HOS cells at 0.1 to 0.4 uM measured for 48 hrs scratch wound healing migration assay; format: functional, cell-based; conditions: dose 0.1-0.4 µM
[33] = biological target: Platelet-derived growth factor receptor alpha (Homo sapiens, UniProt P16234); assay: Binding affinity to PDGFRalpha (unknown origin)
[34] = system: MG-63; assay: Antimigratory activity against human MG-63 cells assessed as expression of FAK by measuring fluorescence at 0.1 to 0.4 uM upto 48 hrs by DAPI staining based immunofluorescence microscopic analysis; format: functional, cell-based; conditions: dose 0.1-0.4 µM
[35] = system: HOS-TE85; assay: Inhibition of alpha tubulin expression in human MNNG/HOS cells assessed as effect on microtubule network at 0.1 to 0.4 uM by DAPI staining based immunofluorescence microscopic analysis; format: functional, cell-based; conditions: dose 0.1-0.4 µM
[36] = system: HOS-TE85; assay: Antitumor activity against human MNNG/HOS cells xenografted in BALB/c nude mouse assessed as reduction in tumor growth at 15 to 30 mg/kg/day, po dosed for 14 days; format: functional, organism-based; conditions: dose lower […], dose upper 30.0 mg/kg/day, time 14.0 day
[37] = system: HOS-TE85; assay: Inhibition of colony formation in human MNNG/HOS cells at 0.2 uM by crystal violet staining based analysis; format: functional, cell-based

T1 sequence (P09619 whole entry): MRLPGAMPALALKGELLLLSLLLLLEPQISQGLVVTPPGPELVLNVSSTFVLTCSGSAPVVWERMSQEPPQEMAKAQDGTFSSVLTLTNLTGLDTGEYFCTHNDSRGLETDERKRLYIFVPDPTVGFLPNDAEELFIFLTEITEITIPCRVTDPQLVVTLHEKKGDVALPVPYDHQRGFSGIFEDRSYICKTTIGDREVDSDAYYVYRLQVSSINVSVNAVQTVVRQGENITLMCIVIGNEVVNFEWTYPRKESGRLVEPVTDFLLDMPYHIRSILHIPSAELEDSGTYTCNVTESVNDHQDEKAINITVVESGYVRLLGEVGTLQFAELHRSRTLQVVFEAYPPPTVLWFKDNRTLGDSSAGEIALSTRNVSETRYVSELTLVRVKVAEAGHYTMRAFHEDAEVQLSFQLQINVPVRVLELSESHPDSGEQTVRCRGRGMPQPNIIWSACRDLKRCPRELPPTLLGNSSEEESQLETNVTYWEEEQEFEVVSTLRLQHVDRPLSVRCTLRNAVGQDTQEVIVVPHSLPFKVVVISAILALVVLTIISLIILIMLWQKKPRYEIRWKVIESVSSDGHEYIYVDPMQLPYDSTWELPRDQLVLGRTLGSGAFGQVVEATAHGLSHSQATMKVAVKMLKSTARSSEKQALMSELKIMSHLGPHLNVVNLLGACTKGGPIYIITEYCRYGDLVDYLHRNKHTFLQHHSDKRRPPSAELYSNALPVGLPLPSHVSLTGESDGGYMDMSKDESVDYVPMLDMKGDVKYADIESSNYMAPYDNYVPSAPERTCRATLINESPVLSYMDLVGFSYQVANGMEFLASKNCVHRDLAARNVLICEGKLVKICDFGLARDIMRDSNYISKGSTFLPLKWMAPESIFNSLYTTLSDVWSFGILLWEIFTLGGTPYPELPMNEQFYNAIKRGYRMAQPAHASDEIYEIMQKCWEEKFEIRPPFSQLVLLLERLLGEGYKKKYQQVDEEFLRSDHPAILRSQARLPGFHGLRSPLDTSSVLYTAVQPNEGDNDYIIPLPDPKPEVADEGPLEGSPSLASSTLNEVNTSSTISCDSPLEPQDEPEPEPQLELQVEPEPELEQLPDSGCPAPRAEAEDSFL
Platelet-derived growth factor receptor alpha, sequence (P16234 whole entry): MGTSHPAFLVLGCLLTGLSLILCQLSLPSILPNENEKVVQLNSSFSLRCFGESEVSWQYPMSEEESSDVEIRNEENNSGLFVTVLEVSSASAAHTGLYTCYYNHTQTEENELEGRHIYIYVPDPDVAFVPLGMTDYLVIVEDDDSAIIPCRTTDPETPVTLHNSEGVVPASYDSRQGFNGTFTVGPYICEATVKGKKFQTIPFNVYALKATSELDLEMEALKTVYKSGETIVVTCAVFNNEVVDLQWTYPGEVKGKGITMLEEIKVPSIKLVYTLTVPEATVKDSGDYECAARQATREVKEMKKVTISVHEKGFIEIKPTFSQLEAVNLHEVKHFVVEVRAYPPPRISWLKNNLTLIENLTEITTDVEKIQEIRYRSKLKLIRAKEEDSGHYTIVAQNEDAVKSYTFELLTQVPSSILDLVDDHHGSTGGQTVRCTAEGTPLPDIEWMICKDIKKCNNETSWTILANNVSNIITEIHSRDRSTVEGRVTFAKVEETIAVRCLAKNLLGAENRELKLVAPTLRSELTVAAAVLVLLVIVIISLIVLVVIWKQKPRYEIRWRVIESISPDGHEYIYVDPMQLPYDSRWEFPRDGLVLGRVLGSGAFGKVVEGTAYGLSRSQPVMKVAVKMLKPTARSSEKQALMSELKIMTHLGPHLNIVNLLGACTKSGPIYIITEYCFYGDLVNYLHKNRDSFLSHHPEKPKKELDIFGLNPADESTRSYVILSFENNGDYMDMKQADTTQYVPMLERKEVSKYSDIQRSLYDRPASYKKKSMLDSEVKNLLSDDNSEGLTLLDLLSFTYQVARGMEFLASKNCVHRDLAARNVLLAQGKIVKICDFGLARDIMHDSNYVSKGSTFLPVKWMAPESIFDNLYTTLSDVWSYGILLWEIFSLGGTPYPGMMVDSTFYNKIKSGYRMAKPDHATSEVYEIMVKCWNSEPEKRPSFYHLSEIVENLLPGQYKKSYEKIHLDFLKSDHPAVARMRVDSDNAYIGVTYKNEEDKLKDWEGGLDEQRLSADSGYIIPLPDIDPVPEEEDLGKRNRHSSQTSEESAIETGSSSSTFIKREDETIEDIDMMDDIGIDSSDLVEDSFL

CCN1CCN(c2ccc(Nc3ncc(C)c(Nc4ccc5cn[nH]c5c4)n3)cc2OC)CC1
active: inhibition [1] Dde | Activity [2] | inhibition [3] Dde | inhibition [4] | inhibition [5] | inhibition [6] | inhibition [7] Dde | inhibition [8] Dde | inhibition [9] | Activity [10] | inhibition [11] | Activity [12] | Activity [13] Dde | Activity [14] | Activity [15] | inhibition [16] | Activity [17] | Activity [18] | Activity [19] | inhibition [20] | inhibition [21] | inhibition [22] Dde | inhibition [23] | inhibition [24] | Activity [25] Dde | inhibition [26] | inhibition [27] Dde | Activity [28] | inhibition [29] | Activity [30] Dde | inhibition [31] | inhibition [32] | Activity [33] | Activity [34] | inhibition [35] | Activity [36] | inhibition [37]
